Results published in the supplement of paper PMC3974653.
Structures can show the parent of a compound that is named as a salt.

test system: MTT (mouse pheochromocytoma); experiment: IC50 of cell viability (ATP content); settings: (24 or 48 h)
In short: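 Each well of a white 1536-well plate received 5 µl of MTT mouse pheochromocytoma cells at 200,000 cells/ml in DMEM containing 5% FBS and 1% horse serum. After overnight culture at 37°C, 5% CO2, cells were exposed for 24 or 48 hrs to 23 nl of library compound in DMSO, pinned at 8 final concentrations from 0.5 nM to 46 µM. CellTiter-Glo luminescence was read after 15 minutes, and IC50 was obtained from a four-parameter logistic fit of signals normalised to positive-control and DMSO wells.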

Row | IC50 of cell viability [µM] | Compound
1 | > 46 | CSCC[C@H](NC(=O)[C@@H](Cc1ccc(O[S+](=O)([O-])O)cc1)NC(=O)[C@H](N)CC(=O)O)C(=O)NCC(=O)N[C@@H](Cc1c[nH]c2ccccc12)C(=O)N[C@H](CCSC)C(=O)N[C@H](CC(=O)O)C(=O)N[C@@H](Cc1ccccc1)C(N)=O [SINCALIDE]
2 | > 46 | Cc1nccn1C[C@@H]1CCc2c(c3ccccc3n2C)C1=O [Ondansetron Hydrochloride]
3 | > 46 | C[C@]12C[C@H](O)[C@H]3[C@@H](CCC/4=C/C(=O)CC[C@]34C)[C@@H]1CC[C@@H]2C(=O)CO [Corticosterone]
4 | > 46 | CO/N=C(/C(=O)N[C@@H]1C(=O)N2C(C(=O)[O-])=CCS[C@H]12)c1csc(N)n1 [CEFTIZOXIME SODIUM]
5 | > 46 | CN1CCN(C(c2ccccc2)c2ccccc2)CC1 [Cyclizine hydrochloride]
6 | > 46 | CCN(CC)CC#CCOC(=O)[C@@](O)(c1ccccc1)C1CCCCC1 [Oxybutynin chloride]
7 | > 46 | N=C(N)NCCCCCCC(=O)NC(O)C(=O)NCCCCNCCCN (stereo not given) [Gusperimus trihydrochloride]
8 | > 46 | CCCCNC(=O)N[S+](=O)([O-])c1ccc(N)cc1 [Carbutamide]
9 | > 46 | CC(=O)OC1CC2CCC1(C)C2(C)C (stereo not given) [BORNYL ACETATE]
10 | > 46 | CCOC(C)=O [Ethyl acetate]
11 | > 46 | COc1ccc(/C=C/C(=O)Nc2ccccc2C(=O)O)cc1OC [Tranilast]
12 | > 46 | C[N+](C)(C)CCCCCC[N+](C)(C)C [HEXAMETHONIUM]
13 | > 46 | Nc1ccc([S+](=O)([O-])Nc2nccs2)cc1 [Sulfathiazole]
14 | > 46 | CC(=O)OC1CCC2C3CCc4cc(O)ccc4C3CCC12C (stereo not given) [ESTRADIOL ACETATE]
15 | > 46 | O=C1CN(/N=C/c2ccc(-c3ccc([N+](=O)[O-])cc3)o2)C(=O)N1 [DANTROLENE]
16 | > 46 | O=C(O)CCNC(=O)c1ccccc1 [BETAMIPRON]
17 | > 46 | C[C@H]1C[C@H]2[C@@H]3C[C@H](F)C/4=C/C(=O)/C=C\[C@]4(C)[C@@]3(F)[C@@H](O)C[C@]2(C)[C@@]1(OC(C)=O)C(=O)COC(C)=O [Diflorasone diacetate]
18 | > 46 | NC1(CCC1)C2=CC=C(C=C2)C3=C(C=C/4C(=N3)\C=C/N5C(=O)N\N=C45)C6=CC=CC=C6 [MK-2206]
19 | > 46 | O=C(N[C@H](CO)[C@H](O)c1ccc([N+](=O)[O-])cc1)C(Cl)Cl [Chloramphenicol]
20 | > 46 | C=CCCCCCCCCC(=O)OC [METHYL UNDECENOATE]
21 | > 46 | CCN(CC)CCNC(=O)c1ccc(N)cc1 [PROCAINAMIDE]

Row | Compound | IC50 of cell viability [µM]
22 | FC(F)OC(F)(F)C(F)Cl (stereo not given) [ENFLURANE] | > 46
23 | CC12CCC3C4CCC(=O)C(O)=C4CCC3C1CCC2OC(=O)CCC1CCCC1 (stereo not given) [OXABOLONE CIPIONATE] | > 46
24 | C=CCN(C1=NCCN1)c1c(Cl)cccc1Cl [Alinidine] | > 46
25 | CC(C)NC(C)C [Diisopropyl amine] | > 46
26 | NNc1ccccc1 [PHENYLHYDRAZINE HYDROCHLORIDE] | > 46
27 | CN1[C@@H]2C[C@H](OC(=O)[C@@H](CO)c3ccccc3)C[C@@H]1[C@H]1O[C@H]12 [scopolamine] | > 46
28 | CCCCNC(C)(C)[PH](=O)O [Butafosfan] | > 46
29 | COC(C)(C)CCCC(C)C/C=C/C(C)=C/C(=O)OC(C)C (stereo not given) [Methoprene] | > 46
30 | CCOP(=S)(OCC)O/N=C(\C#N)c1ccccc1 [Phoxim] | > 46
